# Test results taken from patent US7728016B2, “Substituted 5-membered ring compounds and their use” (Vernalis (Cambridge) Limited, priority 2003, dated 2010).
# pIC50: −log10 of the molar value.
# Biological target: T1, human full-length HSP90 (Homo sapiens, UniProt P08238)
# T1 construct: E. coli expressed human full-length HSP90 protein; made in house; host or cells: E. coli
# Assay: Fluorescence polarization assay (competitive displacement of probe RBT0045864-FAM from HSP90)
# Format: binding
# Settings: fluorescence polarisation assay, E. coli expressed human full-length HSP90, probe 80 nM
# From the text: A fluorescence polarization assay was employed for the evaluation of some of the compounds of the Examples:
# Fluorescence Polarization Assay
# Fluorescence polarization {also known as fluorescence anisotropy} measures the rotation of a fluorescing species in solution, where the larger molecule the more polarized the fluorescence emission. When the fluorophore is excited with polarized light, the emitted light is also polarized. The molecular size is proportional to the polarization of the fluorescence emission.
# The fluoroscein-labelled probe—RBT0045864-FAM—
# [drawing 25] binds to HSP90 {full-length human, full-length yeast or N-terminal domain HSP90} and the anisotropy {rotation of the probe:protein complex} is measured.
# Test compound is added to the assay plate, left to equilibrate and the anisotropy measured again. Any change in anisotropy is due to competitive binding of compound to HSP90, thereby releasing probe.
# Chemicals are of the highest purity commercially available and all aqueous solutions are made up in AR water. • 1) Costar 96-well black assay plate #3915 • 2) Assay buffer of (a)100 mM Tris pH7.4; (b) 20 mM KCl; (c) 6 mM MgCl2. Stored at room temperature. • 3) BSA (bovine serum albumen) 10 mg/ml (New England Biolabs #B9001S) • 4) 20 mM probe in 100% DMSO stock concentration. Stored in the dark at RT. Working concentration is 200 nM diluted in AR water and stored at 4° C. Final concentration in assay 80 nM. • 5) E. coli expressed human full-length HSP90 protein, purified >95% (see, e.g., Panaretou et al., 1998) and stored in 50 μL aliquots at −80° C. Protocol • 1) Add 100 μl 1× buffer to wells 11A and 12A (=FP BLNK) • 2) Prepare assay mix—all reagents are kept on ice with a lid on the bucket as the probe is light-sensitive.
# • 3) Aliquot 100 μl assay mix to all other wells • 4) Seal plate and leave in dark at room temp for 20 minutes to equilibrate Compound Dilution Plate—1×3 Dilution Series • 1) In a clear 96-well v-bottom plate—{#VWR 007/008/257} add 10 μl 100% DMSO to wells B1 to H11 • 2) To wells A1 to A11 add 17.5 μl 100% DMSO • 3) Add 2.5 μl cpd to A1. This gives 2.5 mM {50×} stock cpd—assuming cpds 20 mM. • 4) Repeat for wells A2 to A10. Control in columns 11 and 12. • 5) Transfer 5 μl from row A to row B—not column 12. Mix well. • 6) Transfer 5 μl from row B to row C. […] In column 11 {provides standard curve} only add compound B11-H11. Add 2 μl of 100 mM standard cpd to wells B12-H12 {is positive control} • 13) The Z′ factor is calculated from zero controls and positive wells. It typically gives a value of 0.7-0.9.
# The compounds tested in the above assay were assigned to one of two activity ranges, namely A=<10 μM; B=>10 μM, and those assignments are reported above.
# T1 sequence (P08238 whole entry): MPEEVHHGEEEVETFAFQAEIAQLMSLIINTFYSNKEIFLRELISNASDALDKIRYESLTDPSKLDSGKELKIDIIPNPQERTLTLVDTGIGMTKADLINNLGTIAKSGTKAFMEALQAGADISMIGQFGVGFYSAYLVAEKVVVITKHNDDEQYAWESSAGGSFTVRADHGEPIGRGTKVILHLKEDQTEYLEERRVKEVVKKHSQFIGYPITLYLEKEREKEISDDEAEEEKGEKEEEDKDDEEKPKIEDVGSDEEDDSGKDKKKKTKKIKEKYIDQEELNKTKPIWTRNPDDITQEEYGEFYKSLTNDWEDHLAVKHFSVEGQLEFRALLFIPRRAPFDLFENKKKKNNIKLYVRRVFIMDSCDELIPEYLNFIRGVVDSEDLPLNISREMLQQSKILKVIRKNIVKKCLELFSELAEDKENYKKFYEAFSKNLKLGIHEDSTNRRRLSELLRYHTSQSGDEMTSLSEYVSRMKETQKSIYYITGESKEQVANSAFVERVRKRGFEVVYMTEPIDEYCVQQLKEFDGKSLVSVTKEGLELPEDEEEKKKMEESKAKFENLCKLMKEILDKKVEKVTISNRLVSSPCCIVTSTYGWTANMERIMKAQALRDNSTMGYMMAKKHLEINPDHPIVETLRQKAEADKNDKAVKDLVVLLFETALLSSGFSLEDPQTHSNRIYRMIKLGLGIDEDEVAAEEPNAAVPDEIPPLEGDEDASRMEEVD
row,pIC50,SMILES
1,< 5.00,Oc1ccc(-c2csc(-c3c[nH]c4ccccc34)n2)c(O)c1 [(i)]
2,< 5.00,Oc1ccc(C2NN=C(Cc3ccccc3)S2)c(O)c1 (centres unmarked) [(ii)]
3,> 5.00,Oc1ccc(-c2nnc(S)n2-c2cccc3ccccc23)c(O)c1 [(iii)]
4,> 5.00,Cc1ccccc1-n1c(S)nnc1-c1ccc(O)cc1O [(iv)]
5,> 5.00,COc1ccc(OC)c(-n2c(S)nnc2-c2ccc(O)cc2O)c1 [(v)]
6,< 5.00,"O=C(O)c1nnn(-c2ccc(O)cc2O)c1-c1ccc(F)cc1 [Example 1, 1-(2,4-Dihydroxy-phenyl)-5-(4-fluoro-phenyl)-1H-[1,2,3]triazole-4-carboxylic acid]"
7,< 5.00,"CCOC(=O)c1nnn(-c2ccc(O)cc2O)c1-c1ccc(F)cc1 [Example 2, 1-(2,4-Dihydroxy-phenyl)-5-(4-fluoro-phenyl)-1H-[1,2,3]triazole-4-carboxylic acid ethyl ester]"
8,> 5.00,"CCOC(=O)c1nnn(-c2cc(Cl)c(O)cc2O)c1-c1ccc(F)cc1 [Example 3, 1-(5-Chloro-2,4-dihydroxy-phenyl)-5-(4-fluoro-phenyl)-1H-[1,2,3]triazole-4-carboxylic acid ethyl ester]"
